# PMC6272970 (Molecules, 2016)
# Key:
# [1] = Solubility trials of rutin in water, ethanol, methanol and NADES, quantified by HPLC-DAD; type: physicochemical; details: 22 °C
# Experimental: Samples were stirred on a magnetic stirrer (Stuart, Bibby Scientific Ltd., Stone, Staffordshire, UK) for one hour at room temperature and centrifuged for 21 min at 13,000 rpm with Eppendorf 5415 R centrifuge The time of one-hour stirring was chosen because it was sufficient for all the prepared mixtures to reach maximum concentration of rutin. […] Calibration curve was obtained injecting standard solution at different concentrations namely (50, 25, 10, 5 and 1 μg/mL) Calibration curve was as follows y = 17.832 x + 9.7822 (R^2 was 0.9998). Limit of Quantification was 1 μg/mL. For HPLC-DAD a series 1260 HPLC instrument (Agilent, Cernusco Sul Naviglio (MI), Italy) equipped with a quaternary pump, a diode-array detector, an auto sampler and a column oven compartment was used. Analyses were performed on Eclipse XDB C8 column (5 μm, 4.6 mm × 150 mm, Agilent). The mobile phase was (A) water-formic acid (99.9:0.1, v/v) and (B) acetonitrile. A gradient program was used as follows: [0 → 10[…] (60:40) 10 → 11[…] (0:100) 11 → 12[…] (0:100) 12 → 13[…] (90:10) 13 → 14[…] (90:10)]. The mobile phase flow rate was 1.2 mL/min and the injection volume was 10 μL. The chromatogram was recorded at 350 nm and spectral data for all peaks were obtained in the range of 190-400 nm. The retention time of rutin in the analysis conditions was 3.8 min.
# [2] = set-up: method as in PMID 11151743; details: healthy volunteers, various dose levels; quercetin glucuronides and/or sulfates measured; cited from earlier work
# [3] = set-up: method as in PMID 25030991; details: rat plasma; 2.5 mg/kg sublingual vein administration; cited from earlier work
smiles,measurement,setting,value
C[C@@H]1O[C@@H](OC[C@H]2O[C@@H](Oc3c(-c4ccc(O)c(O)c4)oc4cc(O)cc(O)c4c3=O)[C@H](O)[C@@H](O)[C@@H]2O)[C@H](O)[C@H](O)[C@H]1O [rutin],solubility at 1 h,"[1]; Citric Acid–Fructose 1:1 (NADES mixture 7), organic solvent or mixture, thermodynamic from solid, solvent mixture 7 Citric Acid–Fructose 1:1",205 ± 5.1 µg/mL
same,solubility at 1 h,"[1]; Glucose–Citric Acid–Water 1:1:1 (NADES mixture 9), solvent mixture 9 Glucose–Citric Acid–Water 1:1:1",175 ± 3.7 µg/mL
same,solubility at 1 h,"[1]; Glucose–Fructose–Sorbitol 1:1:1 (NADES mixture 6), organic solvent or mixture, thermodynamic from solid, solvent mixture 6 Glucose–Fructose–Sorbitol 1:1:1",90.8 ± 1.9 µg/mL
same,solubility at 1 h,"[1]; Glucose–Fructose–Water 1:1:1 (NADES mixture 5), organic solvent or mixture, thermodynamic from solid, solvent mixture 5 Glucose–Fructose–Water 1:1:1",81.9 ± 2.5 µg/mL
same,solubility at 1 h,"[1]; Proline–Glutamic Acid 1:1 (NADES mixture 10), solvent mixture 10 Proline–Glutamic Acid 1:1",2260 ± 63.4 µg/mL
same,solubility at 1 h,"[1]; Proline–Glutamic Acid 2:1 (NADES mixture 11), organic solvent or mixture, thermodynamic from solid, solvent mixture 11 Proline–Glutamic Acid 2:1",2940 ± 118 µg/mL
same,solubility at 1 h,"[1]; Tartaric Acid–Fructose 1:1 (NADES mixture 8), organic solvent or mixture, thermodynamic from solid, solvent mixture 8 Tartaric Acid–Fructose 1:1",504 ± 16.4 µg/mL
same,solubility at 1 h,"[1]; ethanol, solvent Ethanol, mean ± SD of 3",2370 ± 93.2 µg/mL
same,solubility at 1 h,"[1]; methanol, solvent Methanol, mean ± SD of 3",2050 ± 89.7 µg/mL
same,solubility at 1 h,"[1]; natural deep eutectic solvent (NADES), organic solvent or mixture, thermodynamic from solid, solvent mixture 1 Urea–Glucose–Citric Acid 1:1:1",379 ± 8.5 µg/mL
same,solubility at 1 h,"[1]; natural deep eutectic solvent (NADES), organic solvent or mixture, thermodynamic from solid, solvent mixture 2 Urea–Glucose–Fructose 1:1:1",961 ± 30.6 µg/mL
same,solubility at 1 h,"[1]; natural deep eutectic solvent (NADES), organic solvent or mixture, thermodynamic from solid, solvent mixture 3 Urea–Tartaric Acid 1:1",680 ± 19 µg/mL
same,solubility at 1 h,"[1]; natural deep eutectic solvent (NADES), organic solvent or mixture, thermodynamic from solid, solvent mixture 4 Urea–Choline chloride 1:1",1880 ± 48.1 µg/mL
same,solubility at 1 h,"[1]; natural deep eutectic solvent (NADES), organic solvent or mixture, thermodynamic from solid, solvent mixture 12 Proline–Oxalic Acid 1:1",749 ± 22.5 µg/mL
same,solubility at 1 h,"[1]; natural deep eutectic solvent (NADES), organic solvent or mixture, thermodynamic from solid, solvent mixture 14 Ornitine–Tartaric Acid 1:1",210 ± 5.7 µg/mL
same,solubility at 1 h,"[1]; natural deep eutectic solvent (NADES), organic solvent or mixture, thermodynamic from solid, solvent mixture 15 Arginine–Tartaric Acid 1:1",363 ± 11.2 µg/mL
same,solubility at 1 h,"[1]; natural deep eutectic solvent (NADES), organic solvent or mixture, thermodynamic from solid, solvent mixture 16 Citrulline–Tartaric Acid 1.1",370 ± 13.1 µg/mL
same,solubility at 1 h,"[1]; natural deep eutectic solvent (NADES), organic solvent or mixture, thermodynamic from solid, solvent mixture 17 Arginine–Oxalic Acid 1:1",414 ± 13.6 µg/mL
same,solubility at 1 h,"[1]; natural deep eutectic solvent (NADES), organic solvent or mixture, thermodynamic from solid, solvent mixture 18 Proline–Malic Acid 1:1",900 ± 31.1 µg/mL
same,solubility at 1 h,"[1]; natural deep eutectic solvent (NADES), organic solvent or mixture, thermodynamic from solid, solvent mixture 19 Arginin–Malic Acid 1:1",457 ± 17.8 µg/mL
same,solubility at 1 h,"[1]; natural deep eutectic solvent (NADES), organic solvent or mixture, thermodynamic from solid, solvent mixture 20 Ornitine–Malic Acid 1:1",408 ± 14.8 µg/mL
same,solubility at 1 h,"[1]; natural deep eutectic solvent (NADES), organic solvent or mixture, thermodynamic from solid, solvent mixture 21 Citrulline–Malic Acid 1:1",454 ± 18.5 µg/mL
same,solubility at 1 h,"[1]; natural deep eutectic solvent (NADES), organic solvent or mixture, thermodynamic from solid, solvent mixture 22 Proline–Citric Acid 1:1",672 ± 26.2 µg/mL
same,solubility at 1 h,"[1]; natural deep eutectic solvent (NADES), organic solvent or mixture, thermodynamic from solid, solvent mixture 23 Arginine–Citric Acid 1:1",414 ± 13.3 µg/mL
same,solubility at 1 h,"[1]; natural deep eutectic solvent (NADES), organic solvent or mixture, thermodynamic from solid, solvent mixture 24 Ornitine–Citric Acid1:1",425 ± 17.2 µg/mL
same,solubility at 1 h,"[1]; natural deep eutectic solvent (NADES), organic solvent or mixture, thermodynamic from solid, solvent mixture 25 Citrulline–Citric Acid 1:1",460 ± 14.4 µg/mL
same,solubility at 1 h,"[1]; natural deep eutectic solvent (NADES), organic solvent or mixture, thermodynamic from solid, solvent mixture 26 Proline–Glucose1:1",879 ± 31.3 µg/mL
same,solubility at 1 h,"[1]; natural deep eutectic solvent (NADES), organic solvent or mixture, thermodynamic from solid, solvent mixture 27 Proline–Fructose 1:1",1560 ± 43.8 µg/mL
same,solubility at 1 h,"[1]; natural deep eutectic solvent (NADES), organic solvent or mixture, thermodynamic from solid, solvent mixture 28 Proline–Choline Chloride 1:2",2640 ± 101 µg/mL
same,solubility at 1 h,"[1]; natural deep eutectic solvent (NADES), organic solvent or mixture, thermodynamic from solid, solvent mixture 29 Proline–Choline Chloride 1:3",2800 ± 103 µg/mL
same,solubility at 1 h,"[1]; natural deep eutectic solvent (NADES), organic solvent or mixture, thermodynamic from solid, solvent mixture 30 Choline Chloride–Malic Acid 1:1",702 ± 22.3 µg/mL
same,solubility at 1 h,"[1]; water, solvent Water, mean ± SD of 3",120 ± 4.9 µg/mL
same,rutin in plasma after oral dosing,[2],no rutin was detectable
same,maximum concentration,[3],1659 ng/mL
same,time of maximum concentration,[3],5 min
